From PMC3749867, “Evolutionarily conserved structural changes in phosphatidylinositol 5-phosphate 4-kinase (PI5P4K) isoforms are responsible for differences in enzyme activity and localization” (Biochemical Journal, 2013)

Tests used:
PI5P4Kγ = molecular target: T1, PI5P4Kγ (Homo sapiens, UniProt Q8TBX8, E153T/N195G/E196V/D197E, form not given); conditions: read-out: Km (μM ATP); PtdIns5P co-substrate, 10 mM MgCl2, pH 7.4, 30 °C, ATP 0–150 μM
T1 construct: gene PIP4K2C

dPIP4K = molecular target: T2, dPIP4K (Drosophila melanogaster, UniProt A4V141); test: radiometric lipid kinase assay, TLC; format: biochemical; conditions: PtdIns5P co-substrate, 10 mM MgCl2, pH 7.4, 30 °C; labelled compound
T2 construct: gene PIP4K; pGEX6P, E. coli BL21(DE3), GST fusion or GST cleaved by PreScission
T2 sequence (A4V141 1-404): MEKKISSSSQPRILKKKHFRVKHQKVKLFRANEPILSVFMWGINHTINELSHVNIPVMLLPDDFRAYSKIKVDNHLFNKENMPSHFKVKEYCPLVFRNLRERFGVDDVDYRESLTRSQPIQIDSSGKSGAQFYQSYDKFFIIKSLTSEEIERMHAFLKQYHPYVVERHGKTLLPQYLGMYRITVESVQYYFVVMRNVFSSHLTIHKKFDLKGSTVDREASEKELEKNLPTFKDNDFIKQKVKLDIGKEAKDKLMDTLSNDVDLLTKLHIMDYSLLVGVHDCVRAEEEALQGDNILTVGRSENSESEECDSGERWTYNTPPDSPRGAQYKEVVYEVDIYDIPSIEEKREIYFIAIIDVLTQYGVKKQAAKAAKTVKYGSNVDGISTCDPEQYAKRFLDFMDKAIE

PPK-2 = molecular target: T3, PPK-2 (Caenorhabditis elegans, UniProt Q9BL73); test: radiometric lipid kinase assay, TLC; format: biochemical; conditions: PtdIns5P co-substrate, 10 mM MgCl2, pH 7.4, 30 °C; labelled compound
T3 construct: pGEX6P, E. coli BL21(DE3), GST fusion or GST cleaved by PreScission
T3 sequence (Q9BL73 1-401): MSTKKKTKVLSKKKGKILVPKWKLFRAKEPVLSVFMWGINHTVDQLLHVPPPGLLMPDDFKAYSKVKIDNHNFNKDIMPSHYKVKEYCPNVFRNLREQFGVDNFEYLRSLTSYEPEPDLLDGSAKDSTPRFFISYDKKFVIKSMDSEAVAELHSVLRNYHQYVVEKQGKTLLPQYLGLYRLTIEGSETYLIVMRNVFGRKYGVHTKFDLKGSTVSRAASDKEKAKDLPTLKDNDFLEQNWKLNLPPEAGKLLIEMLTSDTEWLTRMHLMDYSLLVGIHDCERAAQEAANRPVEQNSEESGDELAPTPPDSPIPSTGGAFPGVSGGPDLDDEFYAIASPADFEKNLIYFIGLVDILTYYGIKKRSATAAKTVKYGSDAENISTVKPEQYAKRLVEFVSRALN

PI5P4Kβ = molecular target: T4, PI5P4Kβ (Homo sapiens, UniProt P78356); test: radiometric lipid kinase assay, TLC; format: biochemical; conditions: read-out: Km (μM ATP); PtdIns5P co-substrate, 10 mM MgCl2, pH 7.4, 30 °C, ATP 0–150 μM
T4 construct: gene PIP4K2B; full-length cDNA in pGEX6P, E. coli BL21(DE3), GST fusion or GST cleaved by PreScission; mutant PI5P4Kβ+ His-tagged; homodimer
T4 sequence (P78356 1-416): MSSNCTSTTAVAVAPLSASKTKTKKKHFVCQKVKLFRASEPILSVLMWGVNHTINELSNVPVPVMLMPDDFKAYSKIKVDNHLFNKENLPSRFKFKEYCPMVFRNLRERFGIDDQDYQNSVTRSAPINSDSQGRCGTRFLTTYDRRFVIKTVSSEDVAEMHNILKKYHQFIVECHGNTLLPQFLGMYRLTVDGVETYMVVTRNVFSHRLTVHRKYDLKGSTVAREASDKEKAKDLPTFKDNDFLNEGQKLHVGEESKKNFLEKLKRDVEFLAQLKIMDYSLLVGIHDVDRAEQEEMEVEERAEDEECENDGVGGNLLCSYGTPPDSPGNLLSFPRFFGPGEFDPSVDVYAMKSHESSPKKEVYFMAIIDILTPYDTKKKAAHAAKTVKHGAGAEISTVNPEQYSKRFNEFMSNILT
From the text: radiometric lipid kinase assay, TLC on PI5P4Kβ

T1 sequence (Q8TBX8 2-421 E153T/N195G/E196V/D197E, form open): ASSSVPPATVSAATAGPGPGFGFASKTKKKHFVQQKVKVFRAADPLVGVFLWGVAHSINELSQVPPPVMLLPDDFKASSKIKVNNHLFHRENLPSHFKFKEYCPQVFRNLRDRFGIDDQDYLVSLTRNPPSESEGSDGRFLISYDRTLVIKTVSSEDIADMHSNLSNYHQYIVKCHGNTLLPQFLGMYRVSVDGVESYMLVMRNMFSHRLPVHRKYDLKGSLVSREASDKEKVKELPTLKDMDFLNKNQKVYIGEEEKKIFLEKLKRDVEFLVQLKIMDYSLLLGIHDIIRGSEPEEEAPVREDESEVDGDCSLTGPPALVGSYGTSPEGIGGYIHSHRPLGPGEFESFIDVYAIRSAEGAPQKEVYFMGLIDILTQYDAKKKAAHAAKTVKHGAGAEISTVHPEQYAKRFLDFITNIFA

- Km (PI5P4Kγ): 3.96 µM
- Km (PI5P4Kβ): 7.58 µM
Compound: Nc1ncnc2c1ncn2[C@@H]1O[C@H](COP(=O)(O)OP(=O)(O)OP(=O)(O)O)[C@@H](O)[C@H]1O [ATP]
- radiometric lipid kinase assay, TLC (dPIP4K): We assayed the PI5P4K activity of recombinant dPIP4K from D. melanogaster
- radiometric lipid kinase assay, TLC (PPK-2): PPK-2 from C. elegans had a similar specific activity to that of PI5P4Kγ
